This note sets out measurements from ChEMBL document CHEMBL1135520, “Rational design and synthesis of a novel thyroid hormone antagonist that blocks coactivator recruitment” (J Med Chem, 2002).

The target in test [1] is T1, Thyroid hormone receptor beta (Homo sapiens, UniProt P10828).
T1 sequence (P10828 whole entry): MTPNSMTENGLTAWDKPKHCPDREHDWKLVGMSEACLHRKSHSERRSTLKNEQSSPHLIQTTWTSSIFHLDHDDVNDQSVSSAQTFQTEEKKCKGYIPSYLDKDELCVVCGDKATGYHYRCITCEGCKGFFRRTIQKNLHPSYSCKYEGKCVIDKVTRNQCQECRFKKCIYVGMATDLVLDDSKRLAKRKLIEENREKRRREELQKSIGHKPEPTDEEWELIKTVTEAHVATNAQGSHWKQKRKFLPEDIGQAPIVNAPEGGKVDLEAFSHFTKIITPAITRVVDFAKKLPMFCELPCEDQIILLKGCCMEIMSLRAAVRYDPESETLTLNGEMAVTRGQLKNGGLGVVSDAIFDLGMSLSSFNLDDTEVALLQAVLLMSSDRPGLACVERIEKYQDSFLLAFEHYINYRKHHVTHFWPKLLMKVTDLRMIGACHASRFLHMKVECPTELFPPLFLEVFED
Put plainly: Half-maximum activation of human Thyroid hormone receptor beta 1 (hTRbeta1).

Test [2] concerns the target T2, Thyroid hormone receptor alpha (Homo sapiens, UniProt P10827).
T2 sequence (P10827 whole entry): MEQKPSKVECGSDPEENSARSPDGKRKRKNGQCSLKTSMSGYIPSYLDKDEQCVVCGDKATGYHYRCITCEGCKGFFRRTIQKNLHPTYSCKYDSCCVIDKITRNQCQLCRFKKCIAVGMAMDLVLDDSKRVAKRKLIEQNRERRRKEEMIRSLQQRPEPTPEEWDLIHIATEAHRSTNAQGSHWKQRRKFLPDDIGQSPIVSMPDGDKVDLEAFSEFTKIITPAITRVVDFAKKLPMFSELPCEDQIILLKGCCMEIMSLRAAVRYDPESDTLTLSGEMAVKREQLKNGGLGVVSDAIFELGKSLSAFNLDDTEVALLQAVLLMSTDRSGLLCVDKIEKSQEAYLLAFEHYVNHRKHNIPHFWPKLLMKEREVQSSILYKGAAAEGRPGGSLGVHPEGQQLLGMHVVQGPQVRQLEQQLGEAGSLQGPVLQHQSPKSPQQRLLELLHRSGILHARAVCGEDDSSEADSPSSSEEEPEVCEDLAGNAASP

Test [3] concerns the target T1, Thyroid hormone receptor beta.
Test [4] concerns the target T2, Thyroid hormone receptor alpha. Put plainly: Half-maximum activation of human Thyroid hormone receptor alpha-1 (hTRalpha1).

Molecules are shown by their SMILES.

As a reminder, the EC50 is the concentration that produces a half-maximal response. Low readings indicate a more potent agent, high ones a less potent agent. By Kd is commonly meant the concentration at which binding is half-saturated. High values mean a looser complex, low ones a tighter complex. In the case of `Cc1cc(OCC(=O)O)cc(C)c1Cc1cc(C#Cc2ccccc2)c(O)c(C(C)C)c1`, the midpoint of the response in test [1], the EC50, lay at 0.5 µM. The Kd in test [2] was determined as 0.49 µM; in test [3], 0.037 µM.
One may read the IC50 as the concentration that gives 50% inhibition. A low value points to inhibition by little substance. For `Cc1cc(OCC(=O)O)cc(C)c1Cc1cc(-c2ccc([N+](=O)[O-])cc2)c(O)c(C(C)C)c1`, the IC50 in test [4] was determined as 5 µM; in test [1] it was 0.68 µM. Further, the Kd in test [2] was 0.2 µM; in test [3], 0.035 µM.
In test [1], `CCCCCc1ccc(C#Cc2cc(Cc3c(C)cc(OCC(=O)O)cc3C)cc(C(C)C)c2O)cc1` gave an EC50 of 0.38 µM. Also, the Kd came to 0.0052 µM in test [2] and 0.00052 µM in test [3].
As for `Cc1cc(OCC(=O)O)cc(C)c1Cc1cc(C#Cc2ccc(N)cc2)c(O)c(C(C)C)c1`, the Kd in test [2] stood at 0.33 µM; in test [3], 0.09 µM.
For the compound `Cc1cc(OCC(=O)O)cc(C)c1Cc1cc(C#Cc2ccc([N+](=O)[O-])cc2)c(O)c(C(C)C)c1`, the values for the IC50 in test [4] and in test [1] were 0.95 µM and 0.37 µM, respectively. For the same compound, the Kd in test [2] was 0.093 µM; in test [3] it was 0.02 µM.
